Reference: patent publication US20240239861A1, “GLUCAGON-RECEPTOR SELECTIVE POLYPEPTIDES AND METHODS OF USE THEREOF” (i2O Therapeutics, Inc., priority 2016, published 2024)
Like-named read-outs stand apart in the source and are kept apart here. Where a SMILES comes first, the peptide text is derived from it. [ ]: non-standard residue; d: D form. Aib = CC(C)(N)C(=O)O

Tests used:
human GCGR = human GCGR (Homo sapiens, UniProt P47871); assay: Peptide-receptor mediated cAMP accumulation (LANCE Ultra cAMP) in CHO-K1 cells transfected with human GCGR; assay type: cell-based
Sequence of human GCGR (P47871 26-477): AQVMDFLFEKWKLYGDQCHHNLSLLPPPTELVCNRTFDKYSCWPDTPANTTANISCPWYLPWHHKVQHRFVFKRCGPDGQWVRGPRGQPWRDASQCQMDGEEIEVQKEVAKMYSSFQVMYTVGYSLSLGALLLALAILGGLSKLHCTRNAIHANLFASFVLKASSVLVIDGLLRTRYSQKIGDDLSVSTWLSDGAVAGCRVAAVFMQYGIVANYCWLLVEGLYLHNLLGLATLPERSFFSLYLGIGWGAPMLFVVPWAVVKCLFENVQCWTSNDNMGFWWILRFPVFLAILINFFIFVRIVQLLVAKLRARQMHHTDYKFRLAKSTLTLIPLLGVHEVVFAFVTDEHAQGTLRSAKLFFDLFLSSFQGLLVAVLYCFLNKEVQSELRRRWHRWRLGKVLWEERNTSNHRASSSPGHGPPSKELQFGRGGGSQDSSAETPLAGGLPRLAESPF

human GLP-1R = human GLP-1R (Homo sapiens, UniProt P43220); assay: Peptide-receptor mediated cAMP accumulation (LANCE Ultra cAMP) in CHO-K1 cells transfected with human GLP-1R; assay type: cell-based
Sequence of human GLP-1R (P43220 24-463): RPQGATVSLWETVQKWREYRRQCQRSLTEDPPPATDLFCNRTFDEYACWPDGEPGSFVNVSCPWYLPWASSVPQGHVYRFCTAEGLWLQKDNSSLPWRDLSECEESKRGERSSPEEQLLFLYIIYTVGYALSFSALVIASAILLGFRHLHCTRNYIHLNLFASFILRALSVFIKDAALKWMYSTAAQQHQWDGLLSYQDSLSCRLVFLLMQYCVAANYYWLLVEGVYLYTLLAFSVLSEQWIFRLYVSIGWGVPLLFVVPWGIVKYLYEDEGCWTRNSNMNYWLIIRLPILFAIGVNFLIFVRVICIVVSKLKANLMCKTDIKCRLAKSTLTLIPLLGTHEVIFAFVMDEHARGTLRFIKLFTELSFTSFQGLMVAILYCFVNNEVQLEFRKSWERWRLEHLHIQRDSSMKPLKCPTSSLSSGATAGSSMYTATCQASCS

[1] = hGLP1 pEC50 (cAMP mean (n = 3): 11 point curve starting at 1 nM, Table 3)
[2] = read-out: GluR pEC50 (converted)
[3] = Table 7, GLP-1R, read-out: GLP-1R pEC50 (converted)

EC50 (human GCGR; Table 3)	EC50 (human GLP-1R; [1])	Structure (SMILES)	EC50 (human GCGR; [2])	EC50 (human GLP-1R; [3])
0.00251 nM	> 1 nM	CC(C)C[C@H](NC(=O)[C@H](Cc1ccc(O)cc1)NC(=O)[C@H](CCCCN)NC(=O)[C@H](CO)NC(=O)[C@H](Cc1ccc(O)cc1)NC(=O)[C@H](CC(=O)O)NC(=O)[C@H](CO)NC(=O)[C@@H](NC(=O)[C@H](Cc1ccccc1)NC(=O)[C@@H](NC(=O)CNC(=O)[C@H](Cc1c[nH]cn1)NC(=O)[C@H](CO)NC(=O)[C@@H](N)Cc1ccc(O)cc1)[C@@H](C)O)[C@@H](C)O)C(=O)N[C@@H](CC(=O)O)C(=O)N[C@@H](CO)C(=O)N[C@@H](C)C(=O)N[C@@H](CCCNC(=N)N)C(=O)N[C@@H](C)C(=O)N[C@@H](CCC(N)=O)C(=O)N[C@@H](CCC(=O)O)C(=O)N[C@@H](Cc1ccccc1)C(=O)N[C@H](C(=O)N[C@@H](CCCCN)C(=O)N[C@@H](Cc1c[nH]c2ccccc12)C(=O)N[C@@H](CC(C)C)C(=O)N[C@@H](CCC(=O)O)C(=O)N[C@@H](CC(=O)O)C(=O)N[C@@H](CCC(=O)O)C(=O)N1CCC[C@H]1C(=O)N[C@@H](CCCCN)C(=O)N[C@@H](CO)C(=O)N[C@@H](CCCCN)C(=O)N[C@@H](C)C(=O)N1CCC[C@H]1C(=O)N1CCC[C@H]1C(=O)N1CCC[C@H]1C(=O)N[C@@H](CO)C(N)=O)C(C)C [Compound A74] (H-YSHGTFTSDYSKYLDSARAQEFVKWLEDEPKSKAPPPS-NH2; N-terminus assumed)	–	–
0.398 nM	> 1 nM	CC(C)C[C@H](NC(=O)[C@H](Cc1ccc(O)cc1)NC(=O)[C@H](CCCCN)NC(=O)[C@H](CO)NC(=O)[C@H](Cc1ccc(O)cc1)NC(=O)[C@H](CC(=O)O)NC(=O)[C@H](CO)NC(=O)[C@@H](NC(=O)[C@H](Cc1ccccc1)NC(=O)[C@@H](NC(=O)CNC(=O)[C@H](Cc1c[nH]cn1)NC(=O)[C@H](CO)NC(=O)[C@@H](N)Cc1ccc(O)cc1)[C@@H](C)O)[C@@H](C)O)C(=O)N[C@@H](CC(=O)O)C(=O)N[C@@H](CO)C(=O)N[C@@H](C)C(=O)N[C@@H](CCCNC(=N)N)C(=O)N[C@@H](C)C(=O)N[C@@H](CCC(N)=O)C(=O)N[C@@H](CCC(=O)O)C(=O)N[C@@H](Cc1ccccc1)C(=O)N[C@H](C(=O)N[C@@H](CCCCN)C(=O)N[C@@H](Cc1c[nH]cn1)C(=O)N[C@@H](CC(C)C)C(=O)N[C@@H](CCC(=O)O)C(=O)N[C@@H](CC(=O)O)C(=O)N[C@@H](CCC(=O)O)C(=O)N1CCC[C@H]1C(=O)N[C@@H](CCCCN)C(=O)N[C@@H](CO)C(=O)N[C@@H](CCCCN)C(=O)N[C@@H](CO)C(=O)N1CCC[C@H]1C(=O)N1CCC[C@H]1C(=O)N1CCC[C@H]1C(=O)N[C@@H](CO)C(=O)O)C(C)C [Compound A84] (H-YSHGTFTSDYSKYLDSARAQEFVKHLEDEPKSKSPPPS-OH; N-terminus assumed)	–	–
0.00501 nM	> 1 nM	CC(C)C[C@H](NC(=O)[C@H](Cc1ccc(O)cc1)NC(=O)[C@H](CCCCN)NC(=O)[C@H](CO)NC(=O)[C@H](Cc1ccc(O)cc1)NC(=O)[C@H](CC(=O)O)NC(=O)[C@H](CO)NC(=O)[C@@H](NC(=O)[C@H](Cc1ccccc1)NC(=O)[C@@H](NC(=O)CNC(=O)[C@H](Cc1c[nH]cn1)NC(=O)[C@@H](NC(=O)[C@@H](N)Cc1ccc(O)cc1)[C@@H](C)O)[C@@H](C)O)[C@@H](C)O)C(=O)N[C@@H](CC(=O)O)C(=O)NC(C)(C)C(=O)N[C@@H](CCCCN)C(=O)N[C@@H](CCCNC(=N)N)C(=O)N[C@@H](C)C(=O)N[C@@H](CCC(N)=O)C(=O)N[C@@H](CCC(=O)O)C(=O)N[C@@H](Cc1ccccc1)C(=O)N[C@H](C(=O)NC(C)(C)C(=O)N[C@@H](Cc1c[nH]c2ccccc12)C(=O)N[C@@H](CC(C)C)C(=O)N[C@@H](CCC(=O)O)C(=O)N[C@@H](CC(=O)O)C(=O)N[C@@H](CCC(=O)O)C(=O)N1CCC[C@H]1C(=O)N[C@@H](CO)C(=O)N[C@@H](CO)C(=O)NCC(=O)N[C@@H](CCCCN)C(=O)N1CCC[C@H]1C(=O)N1CCC[C@H]1C(=O)N1CCC[C@H]1C(=O)N[C@@H](CO)C(=O)O)C(C)C [Compound A60] (H-YTHGTFTSDYSKYLD[Aib]KRAQEFV[Aib]WLEDEPSSGKPPPS-OH; N-terminus assumed)	–	–
–	–	CCCCCCCCCCCCCCCC(=O)N[C@@H](CCC(=O)NCCCC[C@H](NC(=O)[C@H](CC(=O)O)NC(=O)[C@H](CC(C)C)NC(=O)[C@H](Cc1ccc(O)cc1)NC(=O)[C@H](CCCCN)NC(=O)[C@H](CO)NC(=O)[C@H](Cc1ccc(O)cc1)NC(=O)[C@H](CC(=O)O)NC(=O)[C@H](CO)NC(=O)[C@@H](NC(=O)[C@H](Cc1ccccc1)NC(=O)[C@@H](NC(=O)CNC(=O)[C@H](Cc1c[nH]cn1)NC(=O)[C@H](CO)NC(=O)[C@@H](N)Cc1ccc(O)cc1)[C@@H](C)O)[C@@H](C)O)C(=O)N[C@@H](CCCCN)C(=O)N[C@@H](CCCNC(=N)N)C(=O)N[C@@H](C)C(=O)N[C@@H](CCC(N)=O)C(=O)N[C@@H](CCC(=O)O)C(=O)N[C@@H](Cc1ccccc1)C(=O)N[C@H](C(=O)N[C@H](C(=O)N[C@@H](Cc1c[nH]c2ccccc12)C(=O)N[C@@H](CC(C)C)C(=O)N[C@@H](CCC(=O)O)C(=O)N[C@@H](CC(=O)O)C(=O)N[C@@H](CCC(=O)O)C(=O)N1CCC[C@H]1C(=O)N[C@@H](CO)C(=O)N[C@@H](CO)C(=O)NCC(=O)N[C@@H](C)C(=O)N1CCC[C@H]1C(=O)N1CCC[C@H]1C(=O)N1CCC[C@H]1C(=O)N[C@@H](CO)C(=O)O)[C@@H](C)CC)C(C)C)C(=O)O [Compound B26]	0.01 nM	> 1000 nM
0.002 nM	> 1 nM	CC(C)C[C@H](NC(=O)[C@H](Cc1ccc(O)cc1)NC(=O)[C@H](CCCCN)NC(=O)[C@H](CO)NC(=O)[C@H](Cc1ccc(O)cc1)NC(=O)[C@H](CC(=O)O)NC(=O)[C@H](CO)NC(=O)[C@@H](NC(=O)[C@H](Cc1ccccc1)NC(=O)[C@@H](NC(=O)CNC(=O)[C@H](Cc1c[nH]cn1)NC(=O)[C@H](CO)NC(=O)[C@@H](N)Cc1ccc(O)cc1)[C@@H](C)O)[C@@H](C)O)C(=O)N[C@@H](CC(=O)O)C(=O)NC(C)(C)C(=O)N[C@@H](CCCCN)C(=O)N[C@@H](CCCNC(=N)N)C(=O)N[C@@H](C)C(=O)N[C@@H](CCC(N)=O)C(=O)N[C@@H](CCC(=O)O)C(=O)N[C@@H](Cc1ccccc1)C(=O)N[C@H](C(=O)NC(C)(C)C(=O)N[C@@H](Cc1c[nH]c2ccccc12)C(=O)N[C@@H](CC(C)C)C(=O)N[C@@H](CCC(=O)O)C(=O)N[C@@H](CC(=O)O)C(=O)N[C@@H](CCC(=O)O)C(=O)N[C@@H](CCCCN)C(=O)N[C@@H](CCCNC(=N)N)C(=O)N[C@@H](CC(N)=O)C(=O)N[C@@H](CCCCN)C(=O)N1CCC[C@H]1C(=O)N1CCC[C@H]1C(=O)N1CCC[C@H]1C(=O)N[C@@H](C)C(=O)O)C(C)C [Compound A45] (H-YSHGTFTSDYSKYLD[Aib]KRAQEFV[Aib]WLEDEKRNKPPPA-OH; N-terminus assumed)	–	–
–	–	CCCCCCCCCCCCCCCC(=O)N[C@@H](CCC(=O)NCCCC[C@H](NC(=O)[C@@H](NC(=O)[C@H](Cc1ccccc1)NC(=O)[C@H](CCC(=O)O)NC(=O)[C@H](CCC(N)=O)NC(=O)[C@H](C)NC(=O)[C@H](Cc1ccc(O)cc1)NC(=O)[C@H](CCCCN)NC(=O)C(C)(C)NC(=O)[C@H](CC(=O)O)NC(=O)[C@H](CC(C)C)NC(=O)[C@H](Cc1ccc(O)cc1)NC(=O)[C@H](CCCCN)NC(=O)[C@H](CO)NC(=O)[C@H](Cc1ccc(O)cc1)NC(=O)[C@H](CC(=O)O)NC(=O)[C@H](CO)NC(=O)[C@@H](NC(=O)[C@H](Cc1ccccc1)NC(=O)[C@@H](NC(=O)CNC(=O)[C@H](Cc1c[nH]cn1)NC(=O)[C@H](CO)NC(=O)[C@@H](N)Cc1ccc(O)cc1)[C@@H](C)O)[C@@H](C)O)C(C)C)C(=O)N[C@@H](Cc1c[nH]c2ccccc12)C(=O)N[C@@H](CC(C)C)C(=O)N[C@@H](CCC(=O)O)C(=O)N[C@@H](CC(=O)O)C(=O)N[C@@H](CCC(=O)O)C(=O)N1CCC[C@H]1C(=O)N[C@@H](CO)C(=O)N[C@@H](CO)C(=O)NCC(=O)N[C@@H](C)C(=O)N1CCC[C@H]1C(=O)N1CCC[C@H]1C(=O)N1CCC[C@H]1C(=O)N[C@@H](CO)C(=O)O)C(=O)O [Compound B2]	0.00794 nM	> 1000 nM

Structure (SMILES)	EC50 (human GCGR; Table 3)	EC50 (human GLP-1R; [1])	EC50 (human GCGR; [2])	EC50 (human GLP-1R; [3])
CC(C)C[C@H](NC(=O)[C@H](Cc1c[nH]c2ccccc12)NC(=O)[C@H](CCCCN)NC(=O)[C@H](CO)NC(=O)[C@H](Cc1ccc(O)cc1)NC(=O)[C@H](CC(=O)O)NC(=O)[C@H](CO)NC(=O)[C@@H](NC(=O)[C@H](Cc1ccccc1)NC(=O)[C@@H](NC(=O)CNC(=O)[C@H](Cc1c[nH]cn1)NC(=O)[C@@H](NC(=O)[C@@H](N)Cc1ccc(O)cc1)[C@@H](C)O)[C@@H](C)O)[C@@H](C)O)C(=O)N[C@@H](CC(=O)O)C(=O)N[C@@H](CO)C(=O)N[C@@H](CCCCN)C(=O)N[C@@H](CCCNC(=N)N)C(=O)N[C@@H](C)C(=O)N[C@@H](CCC(N)=O)C(=O)N[C@@H](CCC(=O)O)C(=O)N[C@@H](Cc1ccccc1)C(=O)N[C@H](C(=O)N[C@@H](CCCCN)C(=O)N[C@@H](Cc1c[nH]c2ccccc12)C(=O)N[C@@H](CC(C)C)C(=O)N[C@@H](CCC(=O)O)C(=O)N[C@@H](CC(=O)O)C(=O)N[C@@H](CCC(=O)O)C(=O)N1CCC[C@H]1C(=O)N[C@@H](CO)C(=O)N[C@@H](CO)C(=O)NCC(=O)N[C@@H](C)C(=O)N1CCC[C@H]1C(=O)N1CCC[C@H]1C(=O)N1CCC[C@H]1C(=O)N[C@@H](CO)C(=O)O)C(C)C [Compound A42] (H-YTHGTFTSDYSKWLDSKRAQEFVKWLEDEPSSGAPPPS-OH; N-terminus assumed)	0.398 nM	> 1 nM	–	–
